# ChEMBL document CHEMBL1862790, “Optimisation of fenarimol series for the treatment of Chagas disease”
# What was measured:
# [1] = system: Trypanosoma cruzi; assay: microbe, parasite or virus in culture; assay type: functional, organism-based, Tulahuen LacZ, Clone C4
# [2] = system: L6; assay: (§1) DNDI: Cytotoxicity against L-6 rat myoblasts from skeletal muscle cells; details: L6 rat skeletal muscle myoblast cells
# [3] = system: Trypanosoma cruzi; assay: microbe, parasite or virus in culture; assay type: functional, Tulahuen LacZ, Clone C4
# [4] = as §1; details: L6 rat skeletal muscle myoblast cells, IC50
# [5] = Trypanosoma cruzi, Tulahuen LacZ, Clone C4
Compound,"IC50 [1, 5] [nM]","IC90 [3, 5] [nM]",IC50 [1] [nM],IC90 [3] [nM],IC50 [2] [nM],IC50 [4] [nM]
OC(c1ccc(Cl)cc1)(c1ccc(Cl)cc1)c1cccnc1,90,27000,,,49000,
OC(c1ccc(Cl)cc1)(c1ccc(Cl)cc1)c1cncnc1,224,,,,47700,
OC(c1ccc(Cl)cc1)(c1cccnc1)c1ccccc1C(F)(F)F (configuration not stated),122,,,,59200,
O=C(c1ccno1)N1CCC(NC(c2ccc(C(F)(F)F)cc2)c2cccnc2)CC1 (configuration not stated),90,270,,,,> 100000
OC(c1ccc(Cl)cc1)(c1ccc(Cl)cc1)c1ccco1,> 10000,> 10000,,,,48000
FC(F)(F)c1ccc(C(NC2CCN(c3ncccn3)CC2)c2cscn2)cc1 (configuration not stated),> 1000,> 1000,,,,88100
O=C(NC1CCN(C(c2cncnc2)c2ccc(Cl)cc2F)CC1)C1CC1 (configuration not stated),150,480,,,,> 100000
O=C(NC1CCN(C(c2ccc(Cl)cc2)c2cccnc2)CC1)C1CC1 (configuration not stated),78,580,,,,84100
CCC(=O)NC1CCN(C(c2ccc(C(F)(F)F)cc2)c2cnccn2)CC1 (configuration not stated),1040,7600,,,,> 100000
CS(=O)(=O)c1ccc(N2CCC(NC(c3cccnc3)c3cnn(CC(F)(F)F)c3)CC2)cc1 (configuration not stated),4160,> 10000,,,,> 100000
O=S(=O)(c1ccccc1)N1CCC(NC(c2ccc(C(F)(F)F)cc2)c2cnccn2)CC1 (configuration not stated),170,320,,,,> 100000
Cc1cc(C(=O)NC2CCN(C(c3ccc(C#N)cc3)c3cccnc3)CC2)nn1C (configuration not stated),260,962,,,,> 100000
CC(=O)NC1CCN(C(c2ccc(C(F)(F)F)cc2)c2cnccn2)CC1 (configuration not stated),1440,3170,,,,> 100000
CN(C)C(=O)N1CCN(C(c2cncnc2)c2ccc(Cl)cc2F)CC1 (configuration not stated),480,940,,,,> 100000
O=C(NC1CCN(C(c2ccc(C(F)(F)F)cc2)c2cnccn2)CC1)C1CC1 (configuration not stated),660,> 1000,575,1290,,> 100000
CC(C)CNC(=O)c1cccc(C(O)(c2ccc(Cl)cc2)c2cccnc2)c1 (configuration not stated),98,300,,,,60500
O=S(=O)(c1ccccc1)N1CCC(NC(c2cnccn2)c2ccc(F)cc2F)CC1 (configuration not stated),400,880,,,,72200
OC(CC1CCCCC1)(c1ccc(Cl)cc1)c1cncnc1 (configuration not stated),154,368,,,,64700

# More lines, in order of falling IC50 [1, 5], values ahead:
"IC50 [1, 5] [nM]","IC90 [3, 5] [nM]",IC50 [1] [nM],IC90 [3] [nM],Compound,IC50 [2] [nM],IC50 [4] [nM]
76,220,,,O=S(=O)(c1ccc(C(F)(F)F)cc1)N1CCN(C(c2cncnc2)c2ccc(Cl)cc2F)CC1 (configuration not stated),,74700
69.5,470,,,Cc1oncc1C(=O)N1CCC(NC(c2ccc(C(F)(F)F)cc2)c2cccnc2)CC1 (configuration not stated),,> 100000
65,> 100,,,FC(F)(F)Cn1cc(C(NC2CCN(c3ccc(OC(F)(F)F)cc3)CC2)c2cccnc2)cn1 (configuration not stated),,66600
62,200,,,CC(C)CS(=O)(=O)N1CCN(C(c2ccc(Cl)cc2)c2cncnc2)CC1 (configuration not stated),,92700
60,230,,,CC(C)Oc1ncc(C(O)(c2ccc(Cl)cc2)c2cccnc2)cn1 (configuration not stated),,> 100000
47,140,,,CCS(=O)(=O)N1CCN(C(c2ccc(Cl)cc2)c2cccnc2)CC1 (configuration not stated),,> 100000
40.5,204,,,O=C(NC1CCN(C(c2cncnc2)c2ccc(Cl)cc2F)CC1)c1cccc(F)c1 (configuration not stated),,61200
40,100,,,CC(C)Oc1ccc(C(O)(c2ccc(Cl)cc2)c2cncnc2)cn1 (configuration not stated),,85900
30,190,,,O=C(Nc1ccccc1)NC1CCN(C(c2cncnc2)c2ccc(Cl)cc2F)CC1 (configuration not stated),,56000
29,95,,,N#Cc1ccc(C(c2cccnc2)N2CCC(NC(=O)Nc3ccccc3)CC2)cc1 (configuration not stated),,> 100000
24,266,,,CC(C)(C)C(=O)N1CCC(NC(c2ccc(C(F)(F)F)cc2)c2cccnc2)CC1 (configuration not stated),,> 100000
22,110,,,O=C(NC1CCN(C(c2cncnc2)c2ccc(Cl)cc2F)CC1)c1ccccc1 (configuration not stated),,82400
19,41,,,FC(F)(F)c1ccc(N(CC2CCN(c3ccc(Cl)cc3)CC2)c2cccnc2)cc1,,76300
15.5,49,,,N#Cc1ccc(C(c2cccnc2)N2CCC(NC(=O)c3cc(F)ccc3F)CC2)cc1 (configuration not stated),,> 100000
6,10,,,O=C(NC1CCN(C(c2ccc(C(F)(F)F)cc2)c2cccnc2)CC1)c1ccccc1C(F)(F)F (configuration not stated),,> 100000
5.5,,,420,FC(F)(F)c1ccc(C(NC2CCN(c3nccs3)CC2)c2cccnc2)cc1 (configuration not stated),,56400
